# Results: patent US10100077B2, “6-aryl-9-glycosylpurines and use thereof” (UNIVERZITA PALACKEHO V OLOMOUCI, priority 2014, dated 2018)
# Tested on: Normal human dermal fibroblasts (NHDF)
# Assay: In vitro phototoxicity test (UVA, neutral red)
# Format: cell-based
# Conditions: UVA 5.0 J/cm^2, 0.9-125 μmol/l or 3.9-500 μmol/l, neutral red after 24 hours
# Protocol: Phototoxic potential of test compound was determined by modified in vitro test validated phototoxicity evaluation (Spielmann H, Balls M, Dupuis J, Pape W J, Pechovitch G, de Silva O, Holzhater H G, Clothier R, Desolle P, Gerberick F, Liebsch M, Lovell W W, Maurer T, Pfannenbecker U, Potthast J M, Csato M, Sladowski D, Steiling W, Brantom P., Toxicol In Vitro. 1998 Jun. 1; 12(3):305-27). Normal human dermal fibroblasts (NHDF) were used as an in vitro model. Cells were isolated from tissue specimens obtained from healthy patients undergoing plastic surgery at the Department of Plastic and Aesthetic Surgery (University Hospital Olomouc). The use of skin tissue was in accordance with the Ethics Committee of the University Hospital and Faculty of Medicine and Dentistry, Palacký University, Olomouc and all patients signed written informed consent. Fibroblasts were used between the 2nd and 4th passage. […]
# Test compound was 6-(3-methoxybenzylamino)-9-β-D-arabinofuranosylpurine. […] Intensity of UVA radiation was evaluated before each irradiation by UVA-meter. […] After 24 hours (37° C., 5% CO2) cell damage was evaluated by neutral red (NR) incorporation into viable cells. […] After 5 minutes of intensive shaking absorbance was measured at 540 nm. […] Phototoxic effect was evaluated as % of viability of control cells that was calculated from experimental data (absorbance) according to the following equation: […]
smiles,measurement,value
COc1cccc(CNc2ncnc3c2ncn3[C@@H]2O[C@H](CO)[C@@H](O)[C@@H]2O)c1 [6-(3-methoxybenzylamino)-9-β-D-arabinofuranosylpurine],phototoxic effect (viability after UVA),non-phototoxic
